[PEt] = P-ethoxy (ethyl phosphotriester) internucleoside linkage
Experiment: Adverse events in study 2003-0578 (NCI CTCAE grading)
Conditions: all treatment groups

Substance: BP1001: liposome-incorporated P-ethoxy antisense oligodeoxynucleotide (5′-ATATTTGGCGATGGCTTC-3′, SEQ ID NO: 1) specific to grb2 mRNA, in neutral DOPC liposomes (DNA, all [PEt], methylation of C not given here; incorporated in neutral DOPC liposomes)
- AML progression, number of patients (AML at enrollment (n = 30)): 19
- Abdominal Pain ≥Grade 3, number of patients (AML at enrollment (n = 30)): 1
- Acidosis ≥Grade 3, number of patients (AML at enrollment (n = 30)): 3
- Acute kidney injury ≥Grade 3, number of patients (AML at enrollment (n = 30)): 3
- Asthenia ≥Grade 3, number of patients (AML at enrollment (n = 30)): 1
- Back Pain ≥Grade 3, number of patients (AML at enrollment (n = 30)): 1
- Blood and lymphatic system disorders ≥Grade 3, number of patients (AML at enrollment (n = 30)): 10
- Cardiac disorders ≥Grade 3, number of patients (AML at enrollment (n = 30)): 1
- Cataract ≥Grade 3, number of patients (AML at enrollment (n = 30)): 1
- Dyspnea ≥Grade 3, number of patients (AML at enrollment (n = 30)): 3
- Extremity Lower Edema ≥Grade 3, number of patients (AML at enrollment (n = 30)): 1
- Eye disorders ≥Grade 3, number of patients (AML at enrollment (n = 30)): 1
- Febrile neutropenia ≥Grade 3, number of patients (AML at enrollment (n = 30)): 3
- Gastrointestinal disorders ≥Grade 3, number of patients (AML at enrollment (n = 30)): 1
- General disorders and administration site conditions ≥Grade 3, number of patients (AML at enrollment (n = 30)): 4
- Hallucinations ≥Grade 3, number of patients (AML at enrollment (n = 30)): 1
- Heart failure ≥Grade 3, number of patients (AML at enrollment (n = 30)): 1
- Hepatic failure ≥Grade 3, number of patients (AML at enrollment (n = 30)): 2
- Hepatobiliary disorders ≥Grade 3, number of patients (AML at enrollment (n = 30)): 2
- Hypocalcemia ≥Grade 3, number of patients (AML at enrollment (n = 30)): 1
- Hypoglycemia ≥Grade 3, number of patients (AML at enrollment (n = 30)): 1
- Hypokalemia ≥Grade 3, number of patients (AML at enrollment (n = 30)): 3
- Hyponatremia ≥Grade 3, number of patients (AML at enrollment (n = 30)): 1
- Hypotension ≥Grade 3, number of patients (AML at enrollment (n = 30)): 3
- Hypovolemia ≥Grade 3, number of patients (AML at enrollment (n = 30)): 1
- Hypoxia ≥Grade 3, number of patients (AML at enrollment (n = 30)): 4
- Investigations ≥Grade 3, number of patients (AML at enrollment (n = 30)): 2
- Leukocytosis ≥Grade 3, number of patients (AML at enrollment (n = 30)): 6
- Metabolism and nutritional disorders ≥Grade 3, number of patients (AML at enrollment (n = 30)): 8
- Multi-organ failure ≥Grade 3, number of patients (AML at enrollment (n = 30)): 2
- Musculoskeletal and connective tissue disorders ≥Grade 3, number of patients (AML at enrollment (n = 30)): 1
- Neoplasms benign, malignant, and unspecified (incl. cysts and polyps) ≥Grade 3, number of patients (AML at enrollment (n = 30)): 2
- Patients with AEs ≥Grade 3, number of patients (AML at enrollment (n = 30)): 23
- Penile Pain ≥Grade 3, number of patients (AML at enrollment (n = 30)): 1
- Platelet count decreased ≥Grade 3, number of patients (AML at enrollment (n = 30)): 2
- Pleural Effusions ≥Grade 3, number of patients (AML at enrollment (n = 30)): 1
- Pneumonia ≥Grade 3, number of patients (AML at enrollment (n = 30)): 4
- Psychiatric disorders ≥Grade 3, number of patients (AML at enrollment (n = 30)): 1
- Renal and urinary disorders ≥Grade 3, number of patients (AML at enrollment (n = 30)): 3
- Reproductive system and breast disorders ≥Grade 3, number of patients (AML at enrollment (n = 30)): 1
- Respiratory distress ≥Grade 3, number of patients (AML at enrollment (n = 30)): 2
- Respiratory failure ≥Grade 3, number of patients (AML at enrollment (n = 30)): 3
- Respiratory, thoracic, and mediastinal disorders ≥Grade 3, number of patients (AML at enrollment (n = 30)): 10
- Tumor lysis syndrome ≥Grade 3, number of patients (AML at enrollment (n = 30)): 1
- Vascular disorders ≥Grade 3, number of patients (AML at enrollment (n = 30)): 3
- AML progression, number of patients (CML at enrollment (n = 5)): 5
- Abdominal Pain ≥Grade 3, number of patients (CML at enrollment (n = 5)): 0
- Acidosis ≥Grade 3, number of patients (CML at enrollment (n = 5)): 0
- Acute kidney injury ≥Grade 3, number of patients (CML at enrollment (n = 5)): 1
- Asthenia ≥Grade 3, number of patients (CML at enrollment (n = 5)): 1
- Back Pain ≥Grade 3, number of patients (CML at enrollment (n = 5)): 0
- Blood and lymphatic system disorders ≥Grade 3, number of patients (CML at enrollment (n = 5)): 2
- Cardiac disorders ≥Grade 3, number of patients (CML at enrollment (n = 5)): 1
- Cataract ≥Grade 3, number of patients (CML at enrollment (n = 5)): 0
- Dyspnea ≥Grade 3, number of patients (CML at enrollment (n = 5)): 0
- Extremity Lower Edema ≥Grade 3, number of patients (CML at enrollment (n = 5)): 0
- Eye disorders ≥Grade 3, number of patients (CML at enrollment (n = 5)): 0
- Febrile neutropenia ≥Grade 3, number of patients (CML at enrollment (n = 5)): 0
- Gastrointestinal disorders ≥Grade 3, number of patients (CML at enrollment (n = 5)): 0
- General disorders and administration site conditions ≥Grade 3, number of patients (CML at enrollment (n = 5)): 2
- Hallucinations ≥Grade 3, number of patients (CML at enrollment (n = 5)): 0
- Heart failure ≥Grade 3, number of patients (CML at enrollment (n = 5)): 1
- Hepatic failure ≥Grade 3, number of patients (CML at enrollment (n = 5)): 0
- Hepatobiliary disorders ≥Grade 3, number of patients (CML at enrollment (n = 5)): 0
- Hypocalcemia ≥Grade 3, number of patients (CML at enrollment (n = 5)): 1
- Hypoglycemia ≥Grade 3, number of patients (CML at enrollment (n = 5)): 1
- Hypokalemia ≥Grade 3, number of patients (CML at enrollment (n = 5)): 1
- Hyponatremia ≥Grade 3, number of patients (CML at enrollment (n = 5)): 1
- Hypotension ≥Grade 3, number of patients (CML at enrollment (n = 5)): 0
- Hypovolemia ≥Grade 3, number of patients (CML at enrollment (n = 5)): 0
- Hypoxia ≥Grade 3, number of patients (CML at enrollment (n = 5)): 0
- Investigations ≥Grade 3, number of patients (CML at enrollment (n = 5)): 0
- Leukocytosis ≥Grade 3, number of patients (CML at enrollment (n = 5)): 2
- Metabolism and nutritional disorders ≥Grade 3, number of patients (CML at enrollment (n = 5)): 4
- Multi-organ failure ≥Grade 3, number of patients (CML at enrollment (n = 5)): 1
- Musculoskeletal and connective tissue disorders ≥Grade 3, number of patients (CML at enrollment (n = 5)): 0
- Neoplasms benign, malignant, and unspecified (incl. cysts and polyps) ≥Grade 3, number of patients (CML at enrollment (n = 5)): 0
- Patients with AEs ≥Grade 3, number of patients (CML at enrollment (n = 5)): 4
- Penile Pain ≥Grade 3, number of patients (CML at enrollment (n = 5)): 0
- Platelet count decreased ≥Grade 3, number of patients (CML at enrollment (n = 5)): 0
- Pleural Effusions ≥Grade 3, number of patients (CML at enrollment (n = 5)): 0
- Pneumonia ≥Grade 3, number of patients (CML at enrollment (n = 5)): 0
- Psychiatric disorders ≥Grade 3, number of patients (CML at enrollment (n = 5)): 0
- Renal and urinary disorders ≥Grade 3, number of patients (CML at enrollment (n = 5)): 1
- Reproductive system and breast disorders ≥Grade 3, number of patients (CML at enrollment (n = 5)): 0
- Respiratory distress ≥Grade 3, number of patients (CML at enrollment (n = 5)): 1
- Respiratory failure ≥Grade 3, number of patients (CML at enrollment (n = 5)): 0
- Respiratory, thoracic, and mediastinal disorders ≥Grade 3, number of patients (CML at enrollment (n = 5)): 1
- Tumor lysis syndrome ≥Grade 3, number of patients (CML at enrollment (n = 5)): 2
- Vascular disorders ≥Grade 3, number of patients (CML at enrollment (n = 5)): 0
- AML progression, number of patients (MDS at enrollment (n = 4)): 2
- Abdominal Pain ≥Grade 3, number of patients (MDS at enrollment (n = 4)): 0
- Acidosis ≥Grade 3, number of patients (MDS at enrollment (n = 4)): 0
- Acute kidney injury ≥Grade 3, number of patients (MDS at enrollment (n = 4)): 0
- Asthenia ≥Grade 3, number of patients (MDS at enrollment (n = 4)): 0
- Back Pain ≥Grade 3, number of patients (MDS at enrollment (n = 4)): 0
- Blood and lymphatic system disorders ≥Grade 3, number of patients (MDS at enrollment (n = 4)): 0
- Cardiac disorders ≥Grade 3, number of patients (MDS at enrollment (n = 4)): 1
- Cataract ≥Grade 3, number of patients (MDS at enrollment (n = 4)): 0
- Dyspnea ≥Grade 3, number of patients (MDS at enrollment (n = 4)): 0
- Extremity Lower Edema ≥Grade 3, number of patients (MDS at enrollment (n = 4)): 0
- Eye disorders ≥Grade 3, number of patients (MDS at enrollment (n = 4)): 0
- Febrile neutropenia ≥Grade 3, number of patients (MDS at enrollment (n = 4)): 0
- Gastrointestinal disorders ≥Grade 3, number of patients (MDS at enrollment (n = 4)): 0
- General disorders and administration site conditions ≥Grade 3, number of patients (MDS at enrollment (n = 4)): 0
- Hallucinations ≥Grade 3, number of patients (MDS at enrollment (n = 4)): 0
- Heart failure ≥Grade 3, number of patients (MDS at enrollment (n = 4)): 1
- Hepatic failure ≥Grade 3, number of patients (MDS at enrollment (n = 4)): 0
- Hepatobiliary disorders ≥Grade 3, number of patients (MDS at enrollment (n = 4)): 0
- Hypocalcemia ≥Grade 3, number of patients (MDS at enrollment (n = 4)): 0
- Hypoglycemia ≥Grade 3, number of patients (MDS at enrollment (n = 4)): 0
- Hypokalemia ≥Grade 3, number of patients (MDS at enrollment (n = 4)): 0

From patent US20200032271A1, “COMBINATION THERAPY WITH LIPOSOMAL ANTISENSE OLIGONUCLEOTIDES” (Bio-Path Holdings, Inc., priority 2016, published 2020)
